Experimental data: patent US12391664B2, “GluN2C/D subunit selective antagonists of the N-methyl-D-aspartate receptor” (Emory University, priority 2018, dated 2025)
Where two headings read alike, the source gives them in different places.

Legend:
Assay type in all cases: cell-based
[1] = target: T1, recombinant rat GluN1/GluN2A (Rattus norvegicus, UniProt Q00959); assay: Two-electrode voltage-clamp recordings in Xenopus laevis oocytes, GluN2A; settings: for I3 μM/Icontrol (mean ± SEM, %) GluN2A: 3 μM compound with 100 μM glutamate and 30 μM glycine, control set as 1; for GluN2A IC50: oocytes, 100 μM glutamate and 30 μM glycine
T1 construct: expressed in transfected cells; host or cells: Xenopus laevis oocytes injected with cRNA (GluN1:GluN2 ratio 1:2)
Protocol: (§1) All target compounds were evaluated for activity by the Traynelis laboratory at Emory University using two-electrode voltage-clamp recordings performed in Xenopus laevis oocytes expressing recombinant GluN2A-D subunits (Table 1). […] Two ester compounds 997-65 and 997-66 also performed no inhibition at GluN2A to GluN2D receptors. […] Consequently, for the compounds that Acker et al. already published, it was necessary to increase the concentration to 100 μM when collecting data for a concentration effect curve. […] Therefore, under this condition, we can only conclude that compound 997-67 remained potent at GluN2C/D-containing receptors, but its selectivity over GluN2A- and GluN2B-containing receptors could not be compared to 997-57. […] Finally, replacing the carboxylic acid to the bio-isostere amide yielded compounds 997-96 and 997-115, which dropped the potency 2- to 4-fold in comparison to their corresponding acids 997-74 and 997-114.
(§2) Two-electrode voltage-clamp recordings were performed in Xenopus laevis oocytes that were injected with mRNA to express recombinant rat GluN1/GluN2A, GluN1/GluN2B, GluN1/GluN2C, and GluN1/GluN2D. The recordings using unfertilized oocytes from Xenopus laevis were permitted by Emory University Institutional Animal Care and Use Committee (IACUC). An automatic injector (Nanoject II, Drummond Scientific) was used for cRNA injection using the pipettes filled with mineral oil. The cRNA that transcribed in vitro via the mMessage Machine kit (Ambion) was diluted with nuclease-free water, and then injected at GluN1/GluN2 with a ratio of 1:2. The oocytes were stored in Barth's solution that contained 88 mM NaCl, 5.0 mM Tris-HCl, 2.4 mM NaHCO3, 1.0 mM KCl, 0.84 mM MgSO4, 0.41 mM CaCl2, 0.33 mM Ca(NO3)2, 0.1 mg/ml gentamycin sulfate, 1.0 U/ml penicillin, and 1 μg/ml streptomycin at a pH of 7.4 and temperatures of 15-17° C. for two to five days before the two-electrode voltage-clamp recordings. When recording, the oocytes were placed in a perfusion chamber and continually washed with the recording solution comprised of 90 mM NaCl, 1.0 mM KCl, 0.50 mM BaCl2, 0.005 mM EDTA, and 10 mM HEPES at a pH of 7.4 and a temperature of 23° C. Glass electrodes with a tip resistance of 0.5 to 2.5 MΩ were obtained from thin-walled glass capillary tubes. Voltage electrodes and current electrodes were filled with 0.3 M and 3.0 M KCl, respectively. The recordings were executed with the oocytes membrane potential holding at −40 m V by an OC-725 amplifier (Warner Instrument Co). All compounds were dissolved in dimethyl sulfoxide (DMSO) as 20 mM stock solutions and future diluted to reach the desired concentration (0.05-0.5% (vol/vol) DMSO) in recording solution comprised of 30 μM glycine and 100 μM glutamate. Each compound was recorded 3-7 times in the least 4 oocytes from at least 2 different Xenopus laevis.
(§3) To evaluate the inhibition of compounds, the concentration-response curve was fitted with the average two-electrode voltage-clamp recording results with the equation
(§4) [formula] • where IC50 is the concentration of compounds that inhibit half maximal of the current response and N is the Hill slope.

[2] = target: T2, recombinant rat GluN1/GluN2B (Rattus norvegicus, UniProt Q00960); assay: Two-electrode voltage-clamp recordings in Xenopus laevis oocytes, GluN2B; settings: for I3 μM/Icontrol (mean ± SEM, %) GluN2B: 3 μM compound with 100 μM glutamate and 30 μM glycine, control set as 1; for GluN2B IC50: oocytes, 100 μM glutamate and 30 μM glycine
T2 construct: expressed in transfected cells; host or cells: Xenopus laevis oocytes injected with cRNA (GluN1:GluN2 ratio 1:2)
Protocol: as §1, §2, §3, §4

[3] = target: T3, recombinant rat GluN1/GluN2C (Rattus norvegicus, UniProt P35439+Q00961); assay: Two-electrode voltage-clamp recordings in Xenopus laevis oocytes, GluN2C
T3 construct: expressed in transfected cells; host or cells: Xenopus laevis oocytes injected with cRNA (GluN1:GluN2 ratio 1:2)
Protocol: as §1, §2, §3, §4

[4] = target: T4, recombinant rat GluN1/GluN2C (Rattus norvegicus, UniProt Q00961); assay: as above; settings: for I3 μM/Icontrol (mean ± SEM, %) GluN2C: 3 μM compound with 100 μM glutamate and 30 μM glycine, control set as 1; for GluN2C IC50: oocytes, 100 μM glutamate and 30 μM glycine
T4 construct: expressed in transfected cells; host or cells: Xenopus laevis oocytes injected with cRNA (GluN1:GluN2 ratio 1:2)
Protocol: as §1, §2, §3, §4

[5] = target: T5, recombinant rat GluN1/GluN2D (Rattus norvegicus, UniProt P35439+Q62645); assay: Two-electrode voltage-clamp recordings in Xenopus laevis oocytes, GluN2D
T5 construct: expressed in transfected cells; host or cells: Xenopus laevis oocytes injected with cRNA (GluN1:GluN2 ratio 1:2)
Protocol: as §1, §2, §3, §4

[6] = target: T6, recombinant rat GluN1/GluN2D (Rattus norvegicus, UniProt Q62645); assay: as above; settings: for I3 μM/Icontrol (mean ± SEM, %) GluN2D: 3 μM compound with 100 μM glutamate and 30 μM glycine, control set as 1; for fold more potent than the (+)-enantiomer at GluN2D: (−)- versus (+)-enantiomer; for GluN2D IC50: oocytes, 100 μM glutamate and 30 μM glycine
T6 construct: expressed in transfected cells; host or cells: Xenopus laevis oocytes injected with cRNA (GluN1:GluN2 ratio 1:2)
Protocol: as §1, §2, §3, §4

[7] = target: T7, recombinant rat GluN1/GluN2B (Rattus norvegicus, UniProt P35439+Q00960); assay: Two-electrode voltage-clamp recordings in Xenopus laevis oocytes, GluN2B; settings: oocytes, 100 μM glutamate and 30 μM glycine
T7 construct: expressed in transfected cells; host or cells: Xenopus laevis oocytes injected with cRNA (GluN1:GluN2 ratio 1:2)
Protocol: as §1, §2, §3, §4

[8] = oocytes, 100 μM glutamate and 30 μM glycine, read-out: GluN2C IC50
[9] = mean IC50 with bottom and top 95% confidence interval, read-out: Avg. GluN2D IC50 (95% CI)
[10] = oocytes, 100 μM glutamate and 30 μM glycine, read-out: GluN2D IC50
[11] = mean IC50 with bottom and top 95% confidence interval, read-out: Avg. GluN2C IC50 (95% CI)
[12] = read-out: IC50 at GluN2D-containing receptors

T2 sequence (Q00960 27-1482, other chains not shown): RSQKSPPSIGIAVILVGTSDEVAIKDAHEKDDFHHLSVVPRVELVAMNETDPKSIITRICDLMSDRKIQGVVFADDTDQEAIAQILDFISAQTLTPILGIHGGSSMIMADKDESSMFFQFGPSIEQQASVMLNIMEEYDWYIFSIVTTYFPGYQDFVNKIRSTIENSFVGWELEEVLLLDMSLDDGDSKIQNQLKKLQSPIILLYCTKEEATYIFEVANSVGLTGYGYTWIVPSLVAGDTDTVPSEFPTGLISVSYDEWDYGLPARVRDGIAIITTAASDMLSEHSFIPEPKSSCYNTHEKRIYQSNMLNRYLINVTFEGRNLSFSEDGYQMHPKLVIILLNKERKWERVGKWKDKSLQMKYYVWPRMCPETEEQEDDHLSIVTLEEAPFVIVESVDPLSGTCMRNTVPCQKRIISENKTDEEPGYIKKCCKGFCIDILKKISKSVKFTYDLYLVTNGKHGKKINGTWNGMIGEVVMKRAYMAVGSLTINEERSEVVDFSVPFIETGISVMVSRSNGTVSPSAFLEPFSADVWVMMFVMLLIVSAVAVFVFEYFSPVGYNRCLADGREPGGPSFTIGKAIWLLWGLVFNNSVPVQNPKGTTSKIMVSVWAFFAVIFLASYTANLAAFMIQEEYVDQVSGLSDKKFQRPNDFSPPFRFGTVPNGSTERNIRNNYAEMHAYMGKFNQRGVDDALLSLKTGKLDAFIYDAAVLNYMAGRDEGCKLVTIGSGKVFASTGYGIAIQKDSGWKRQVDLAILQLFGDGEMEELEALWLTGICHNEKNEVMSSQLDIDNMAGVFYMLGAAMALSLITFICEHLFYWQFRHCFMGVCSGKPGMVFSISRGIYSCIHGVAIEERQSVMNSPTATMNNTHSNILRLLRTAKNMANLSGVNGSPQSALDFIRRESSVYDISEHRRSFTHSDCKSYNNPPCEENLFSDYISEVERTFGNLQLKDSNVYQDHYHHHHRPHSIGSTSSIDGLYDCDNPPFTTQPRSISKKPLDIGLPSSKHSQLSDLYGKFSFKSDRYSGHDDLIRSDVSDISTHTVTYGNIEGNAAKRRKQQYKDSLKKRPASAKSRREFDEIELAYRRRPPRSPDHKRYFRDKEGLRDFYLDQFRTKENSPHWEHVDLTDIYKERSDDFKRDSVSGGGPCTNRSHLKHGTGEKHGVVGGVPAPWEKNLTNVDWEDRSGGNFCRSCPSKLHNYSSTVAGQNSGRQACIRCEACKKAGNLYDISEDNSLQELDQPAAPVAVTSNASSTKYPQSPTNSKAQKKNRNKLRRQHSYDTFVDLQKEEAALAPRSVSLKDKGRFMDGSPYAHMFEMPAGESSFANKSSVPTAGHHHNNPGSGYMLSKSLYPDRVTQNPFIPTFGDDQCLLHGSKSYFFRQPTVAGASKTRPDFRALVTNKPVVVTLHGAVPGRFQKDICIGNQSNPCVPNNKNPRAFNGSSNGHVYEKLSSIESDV
T7 sequence (Q00960 27-1482, other chains not shown): as above
T5 sequence (Q62645 28-1323, other chains not shown): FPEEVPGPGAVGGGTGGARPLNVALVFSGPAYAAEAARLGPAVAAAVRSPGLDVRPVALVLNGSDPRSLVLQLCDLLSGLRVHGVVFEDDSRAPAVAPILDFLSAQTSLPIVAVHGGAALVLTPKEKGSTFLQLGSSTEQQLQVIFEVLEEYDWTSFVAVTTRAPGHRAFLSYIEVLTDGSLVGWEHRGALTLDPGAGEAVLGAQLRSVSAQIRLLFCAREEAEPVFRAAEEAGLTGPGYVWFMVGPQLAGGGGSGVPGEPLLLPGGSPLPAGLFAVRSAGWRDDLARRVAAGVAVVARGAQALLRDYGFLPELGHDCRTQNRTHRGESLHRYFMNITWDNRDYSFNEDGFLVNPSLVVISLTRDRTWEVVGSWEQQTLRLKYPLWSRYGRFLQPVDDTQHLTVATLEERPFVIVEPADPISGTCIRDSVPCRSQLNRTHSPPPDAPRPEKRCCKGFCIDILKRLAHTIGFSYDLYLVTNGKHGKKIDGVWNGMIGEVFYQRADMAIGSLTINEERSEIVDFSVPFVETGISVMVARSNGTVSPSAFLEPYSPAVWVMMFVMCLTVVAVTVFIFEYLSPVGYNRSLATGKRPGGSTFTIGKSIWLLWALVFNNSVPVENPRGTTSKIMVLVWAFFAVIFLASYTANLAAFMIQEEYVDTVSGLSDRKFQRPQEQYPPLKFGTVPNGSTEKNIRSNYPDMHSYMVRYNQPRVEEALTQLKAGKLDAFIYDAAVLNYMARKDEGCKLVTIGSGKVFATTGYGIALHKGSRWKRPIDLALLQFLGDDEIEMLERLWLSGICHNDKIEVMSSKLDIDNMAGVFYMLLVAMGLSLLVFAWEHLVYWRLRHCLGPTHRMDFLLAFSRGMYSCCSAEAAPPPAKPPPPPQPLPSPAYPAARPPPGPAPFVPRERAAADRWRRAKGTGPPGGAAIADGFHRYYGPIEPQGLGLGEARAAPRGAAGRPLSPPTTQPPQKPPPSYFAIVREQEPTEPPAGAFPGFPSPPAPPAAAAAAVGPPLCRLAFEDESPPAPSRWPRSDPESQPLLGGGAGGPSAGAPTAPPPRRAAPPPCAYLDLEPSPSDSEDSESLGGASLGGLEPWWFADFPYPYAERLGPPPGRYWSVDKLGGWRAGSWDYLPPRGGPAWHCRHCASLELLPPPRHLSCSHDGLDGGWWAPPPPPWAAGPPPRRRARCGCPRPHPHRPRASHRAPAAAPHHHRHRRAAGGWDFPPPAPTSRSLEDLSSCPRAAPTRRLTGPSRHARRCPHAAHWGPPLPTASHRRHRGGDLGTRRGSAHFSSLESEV
T6 sequence (Q62645 28-1323, other chains not shown): as above

Compound | IC50 [3, 8] [µM] | IC50 [5, 9] [µM] | IC50 [5, 10] [µM] | GluN2A IC50 [1] | IC50 [7] [µM] | 2B IC50 / 2D IC50 ([6]; ratio of IC50 values) | other results
O=C(CC(F)(F)CO)N1N=C(c2c(-c3ccc(Cl)cc3)c3ccccc3[nH]c2=O)CC1c1ccc(Cl)cc1 (single isomer, unassigned; (+)) [(+)-997-67] | 8.5 | 7.02 | 3.6 |  |  |  | I3 μM/Icontrol (mean ± SEM, %) GluN2A ([1]; listed as (+)-67): 98 ± 2.1%; I3 μM/Icontrol (mean ± SEM, %) GluN2B ([2]; listed as (+)-67): 87 ± 2.8%; I3 μM/Icontrol (mean ± SEM, %) GluN2C ([4]; listed as (+)-67): 74 ± 2.1%; I3 μM/Icontrol (mean ± SEM, %) GluN2D ([6]; listed as (+)-67): 57 ± 3.5%
O=C(CC(F)(F)CO)N1N=C(c2c(-c3ccc(Cl)cc3)c3ccccc3[nH]c2=O)CC1c1ccc(Cl)cc1 (single isomer, unassigned; (-)) [(−)-997-67] | 1.4 | 0.97 | 0.62 |  |  |  | I3 μM/Icontrol (mean ± SEM, %) GluN2A ([1]; listed as (−)-67): 100 ± 0.89%; I3 μM/Icontrol (mean ± SEM, %) GluN2B ([2]; listed as (−)-67): 95 ± 2.2%; IC50 [3, 11]: 2.71 µM; I3 μM/Icontrol (mean ± SEM, %) GluN2C ([4]; listed as (−)-67): 42 ± 2.8%; I3 μM/Icontrol (mean ± SEM, %) GluN2D ([6]; listed as (−)-67): 26 ± 3.2%; fold more potent than the (+)-enantiomer at GluN2D [6]: 6 fold
Cc1c(C2=NNC(c3ccc(Cl)cc3)C2)c(=O)[nH]c2ccccc12 (stereo not drawn) [997-77, 3-(5-(4-chlorophenyl)-4,5-dihydro-1H-pyrazol-3-yl)-4-methylquinolin-2(1H)-one] |  |  |  | NE (NE indicates less than 50% inhibition at 30 μM.) |  |  | GluN2B IC50 [2]: NE (NE indicates less than 50% inhibition at 30 μM.); GluN2C IC50 [4]: NE (NE indicates less than 50% inhibition at 30 μM.); GluN2D IC50 [6]: NE (NE indicates less than 50% inhibition at 30 μM.)
O=c1[nH]c2ccccc2c(-c2ccc(Cl)cc2)c1C1=NNC(c2ccncc2)C1 (stereo not drawn) [997-78, 4-(4-chlorophenyl)-3-[5-(pyridin-4-yl)-4,5-dihydro-1H-pyrazol-3-yl]quinolin-2(1H)-one] | 20 |  | 19 | NE (NE indicates less than 50% inhibition at 30 μM.) | 54 | 3 | GluN2B IC50 [2]: weak potency; GluN2C IC50 [4]: weak potency; GluN2D IC50 [6]: weak potency
O=C(O)CCC(=O)N1N=C(c2c(-c3ccc(Cl)cc3)c3ccccc3[nH]c2=O)CC1c1ccc(Cl)nc1 (stereo not drawn) [997-92, 4-(3-(4-(4-chlorophenyl)-2-oxo-1,2-dihydroquinolin-3-yl)-5-(6-chloropyridin-3-yl)-4,5-dihydro-1H-pyrazol-1-yl)-4-oxobutanoic acid] | 8 |  | 8 | NE (NE indicates less than 50% inhibition at 30 μM.) |  |  | GluN2B IC50 [2]: NE (NE indicates less than 50% inhibition at 30 μM.); GluN2C IC50 [4]: weak activity; GluN2D IC50 [6]: weak activity
NC(=O)CC(F)(F)C(=O)N1N=C(c2c(-c3ccc(Cl)cc3)c3ccccc3[nH]c2=O)CC1c1ccc(Cl)cc1 (stereo not drawn) [997-96, 4-(5-(4-chlorophenyl)-3-(4-(4-chlorophenyl)-2-oxo-1,2-dihydroquinolin-3-yl)-4,5-dihydro-1H-pyrazol-1-yl)-3,3-difluoro-4-oxobutanamide] | 0.5 |  | 0.2 |  | 2.8 | 14 | 2A IC50 / 2D IC50 ([6]; ratio of IC50 values): 150
O=C(O)CC(F)(F)C(=O)N1N=C(c2c(-c3ccc(Cl)cc3)c3ccccc3[nH]c2=O)CC1c1ccc(Cl)s1 (stereo not drawn) [997-110, 4-(3-(4-(4-chlorophenyl)-2-oxo-1,2-dihydroquinolin-3-yl)-5-(5-chlorothiophen-2-yl)-4,5-dihydro-1H-pyrazol-1-yl)-3,3-difluoro-4-oxobutanoic acid] | 0.43 |  |  |  | 100 | 625 | IC50 [5, 12]: 0.16 µM; selectivity at GluN2D- over GluN2B-containing receptor [6]: 625 fold; fold decrease of potency at GluN2D in comparison to 997-74 ([6]; comparator 997-74): 3 fold
O=C(O)CC(F)(F)C(=O)N1N=C(c2ccccc2-c2ccc(Cl)cc2)CC1c1ccc(F)cc1 (stereo not drawn) [997-116, 4-(3-(4′-chloro-[1,1′-biphenyl]-2-yl)-5-(4-fluorophenyl)-4,5-dihydro-1H-pyrazol-1-yl)-3,3-difluoro-4-oxobutanoic acid] | 12.1 |  | 7.41 | NE (NE indicates less than 50% inhibition at 30 μM.) | 23.1 | 3 | 
O=C(O)CC(F)(F)C(=O)N1N=C(c2ccccc2-c2cc(Cl)cc(Cl)c2)CC1c1ccc(Cl)cc1 (stereo not drawn) [997-123, 4-(5-(4-chlorophenyl)-3-(3′,5′-dichloro-[1,1′-biphenyl]-2-yl)-4,5-dihydro-1H-pyrazol-1-yl)-3,3-difluoro-4-oxobutanoic acid] | 7.34 |  | 4.67 | NE (NE indicates less than 50% inhibition at 30 μM.) | 15.6 |  | 
O=C(O)CC(F)(F)C(=O)N1N=C(c2ccccc2-c2ccc(C(F)(F)F)cc2)CC1c1ccc(Cl)cc1 (stereo not drawn) [997-124, 4-(5-(4-chlorophenyl)-3-(4′-(trifluoromethyl)-[1,1′-biphenyl]-2-yl)-4,5-dihydro-1H-pyrazol-1-yl)-3,3-difluoro-4-oxobutanoic acid] | 3.63 |  | 3.57 | NE (NE indicates less than 50% inhibition at 30 μM.) | 14.8 |  | 
O=C(O)CC(F)(F)C(=O)N1N=C(c2c(-c3ccc(Cl)cc3)c3ccccc3[nH]c2=O)C[C@@H]1c1ccc(Cl)cc1 [(+)-997-74] | 3.4 | 2.24 | 3.9 |  |  |  | I3 μM/Icontrol (mean ± SEM, %) GluN2A [1]: 95 ± 0.47%; I3 μM/Icontrol (mean ± SEM, %) GluN2B [2]: 87 ± 1.4%; IC50 [3, 11]: 3.1 µM; I3 μM/Icontrol (mean ± SEM, %) GluN2C [4]: 56 ± 3.8%; I3 μM/Icontrol (mean ± SEM, %) GluN2D [6]: 55 ± 2.7%
O=C(O)CC(F)(F)C(=O)N1N=C(c2c(-c3ccc(Cl)cc3)c3ccccc3[nH]c2=O)C[C@H]1c1ccc(Cl)cc1 [(−)-997-74] | 0.094 | 0.055 |  |  |  |  | I3 μM/Icontrol (mean ± SEM, %) GluN2A [1]: 67 ± 3.9%; I3 μM/Icontrol (mean ± SEM, %) GluN2B [2]: 73 ± 4.8%; IC50 [3, 11]: 0.11 µM; I3 μM/Icontrol (mean ± SEM, %) GluN2C [4]: 9.3 ± 1.8%; IC50 [5, 12]: 0.046 µM; I3 μM/Icontrol (mean ± SEM, %) GluN2D [6]: 3.5 ± 1.0%; fold more potent than the (+)-enantiomer at GluN2D [6]: 85 fold
